What all share (assay type): biochemical
In test [1] the test system is Thermosequenase. The test is described as follows: Thermostable DNA polymerase primer extension, TS. As to conditions: DNA template, 45° C. for 20–40 minutes; for primer extended by at least one base within assay time (grade): TTP replaced entirely by test compound. The arrangement: key to result of incorporation (termination / further chain extension): T: Incorporation results in termination; E: Incorporation permits further chain extension; T/E: Predominant product is primer extended by one base, but evidence of some further extension also observed. The procedure: (§1) DNA polymerase assays were performed using Sequence 1 as primer and Sequence 2 as template. • Sequence 1 5′[Cy3]TAACTCATTAACAGGATC 3′ • Sequence 2 5′AT TCGCGGTATTCTGGTATGAAGCTTTTAGATCCTGTTAATGAGTTA GTA3′
(§2) The template (Sequence 2) was designed such that the base (underlined) immediately adjacent to the 3′ end of the hybridised primer is complementary to the nucleotide test compound. Nucleotide test compounds were compounds (6) (4′-C-(glycylaminomethyl)thymidine triphosphate), (8) (4′-C-(N-trifluoroacetyaminomethyl)thymidine triphosphate) and (9) (4′-C-(aminomethyl)thymidine triphosphate) as described above.
(§3) Primer extension reactions were performed using the above primers in the presence of 40 to 80 μM of nucleotide triphosphates. Positive control reactions contained all four native nucleotide triphosphates. For the other reactions the TTP was replaced with either a 2:1 ratio of […] for the terminator control, or entirely by the test compound The enzymes were used at a final concentration of 0.175 units/μl and a magnesium ion concentration of 2.5 mM in buffers supplied by the manufacturer. The primer and template concentrations were 0.5 pmol/μl and 2 pmol/μl respectively.
(§4) Extension reactions with thermophilic enzymes were performed by initially denaturing the fully assembled reactions at 70° C. for 5 min. followed by 45° C. for 20–40 minutes. The following enzymes were used: Taq DNA polymerase (Taq); Thermosequenase (TS); Thermosequenase II (TSII); Thermosequenase E (TSE), Tfl DNA polymerase (Tfl); Tth DNA polymerase (Tth), deltaTts DNA polymerase (deltaTts), deltaTts D DNA polymerase (dettaTTSD) (all from APBiotech); Pfu DNA polymerase (Pfu) (Stratagene Ltd); Vent™ DNA polymerase (Vent) (New England Biolabs).
(§5) The reactions were stopped by adding a 0.5 volume aliquot of 80% formamide containing 0.1% (w/v) bromophenol blue and 0.1% (w/v) cresol blue. The reaction products were separated by denaturing gel electrophoresis at a constant power of 45 W on 16% polyacrylamide gels containing 50% urea.
(§6) Gels were scanned for Cy3 fluorescence on a Molecular Dynamics Fluorimager and the data analysed using Molecular Dynamics ImageQuant 5 software.
(§7) The incorporation of a test nucleotide triphosphate results in the appearance on a polyacrylamide gel of a single band corresponding to a single base extension product. If, however, the enzyme adds additional bases then further bands would be observed that corresponded to either the full-length product or positions of other complementary bases in the template.

The test system of test [2] is Thermosequenase II. The test is described as follows: Thermostable DNA polymerase primer extension, TSII. The arrangement: key to result of incorporation (termination / further chain extension): T: Incorporation results in termination; E: Incorporation permits further chain extension; T/E: Predominant product is primer extended by one base, but evidence of some further extension also observed. To be noted: DNA template, 45° C. for 20–40 minutes; for primer extended by at least one base within assay time (grade): TTP replaced entirely by test compound. On the procedure: as §1, §2, §3, §4, §5, §6, §7

Test [3] has as its target T1, Tth DNA polymerase (Thermus thermophilus, UniProt P52028).
T1 construct: purchased APBiotech
The test is described as follows: Thermostable DNA polymerase primer extension, Tth. Details: key to result of incorporation (termination / further chain extension): T: Incorporation results in termination; E: Incorporation permits further chain extension; T/E: Predominant product is primer extended by one base, but evidence of some further extension also observed. To be noted: DNA template, 45° C. for 20–40 minutes; for primer extended by at least one base within assay time (grade): TTP replaced entirely by test compound. On the procedure: as §1, §2, §3, §4, §5, §6, §7

Test [4] has as its system Retrotherm reverse transcriptase. The test is described as follows: Thermostable polymerase under reverse transcription conditions, Retroth. To be noted: RNA template, 2.5 mM Manganese ions; for primer extended by at least one base within assay time (grade): Tth reaction buffer. Details: key to result of incorporation (termination / further chain extension): T: Incorporation results in termination; E: Incorporation permits further chain extension; T/E: Predominant product is primer extended by one base, but evidence of some further extension also observed; key to primer extended by at least one base within assay time (grade): −: No extension within assay time; +/−: up to 25% of primer extended by at least one base within assay time; +: up to 50% of primer extended by at least one base within assay time; ++: up to 75% of primer extended by at least one base within assay time; +++: essentially all primer extended by at least one base within assay time. On the procedure: as §1, §2, §3, §4
(§8) Reverse transcriptase reactions were performed essentially as described above for thermophilic and mesophilic enzymes. The template for these reactions was the RNA equivalent of sequence 2. All the thermophilic enzymes were assayed in Tth reaction buffer (Cambio Ltd, Cambridge UK) containing 2.5 mM Manganese ions. The following enzymes were used: Thermosequenase (TS1); Thermosequenase II (TSII); delta Tts DNA polymerase (deltaTts); delta Tts D DNA polymerase (deltaTtsD) (all from APBiotech); Retrotherm reverse transcriptase (Retroth) (Cambio Ltd); Tth DNA polymerase (Tth) (Cambio Ltd.).
as §5, §6, §7

Test [5] deals with delta Tts D DNA polymerase. The test is described as follows: Thermostable polymerase under reverse transcription conditions, delta TtsD. As to conditions: RNA template, 2.5 mM Manganese ions; for primer extended by at least one base within assay time (grade): Tth reaction buffer. Details: key to result of incorporation (termination / further chain extension): T: Incorporation results in termination; E: Incorporation permits further chain extension; T/E: Predominant product is primer extended by one base, but evidence of some further extension also observed; key to primer extended by at least one base within assay time (grade): −: No extension within assay time; +/−: up to 25% of primer extended by at least one base within assay time; +: up to 50% of primer extended by at least one base within assay time; ++: up to 75% of primer extended by at least one base within assay time; +++: essentially all primer extended by at least one base within assay time. The procedure:
as §1, §2, §3, §4, §8, §5, §6, §7

For test [6], the target named is T2, MuLV RT (Moloney murine leukemia virus, UniProt P03355).
T2 construct: MuLv Reverse transcriptase or HIV reverse transcriptase; purchased APBiotech
The test is described as follows: Mesophilic reverse transcriptase reaction, MuLV RT. The arrangement: key to result of incorporation (termination / further chain extension): T: Incorporation results in termination; E: Incorporation permits further chain extension; T/E: Predominant product is primer extended by one base, but evidence of some further extension also observed. To be noted: RNA template, final enzyme concentration of 4 units/μl. The procedure: as §1, §2, §3
Extension reactions preformed with mesophilic polymerases were carried out by mixing all the components of the reaction except the enzyme and heating to 70° C. for 5 min. After the reactions had cooled to room temperature 0.175 units of the enzyme were added and the reactions heated to 37° C. for 20–40 minutes. The following enzymes were used: T7 DNA polymerase (T7); Sequenase 2™ (Seq); Klenow fragment of DNA polymerase 1 (Klen); phi-29 DNA polymerase (Phi-29); T4 DNA polymerase (T4) (all from AP Biotech) and Bst DNA polymerase (Bst) (Cambio Ltd).
as §8
Mesophilic reverse transcriptases (AMV RT; MuLV RT; SAV RT and HIV RT all from APBiotech) were assayed in their respective buffers with a final enzyme concentration of 4 units/μl.
as §5, §6, §7

T1 sequence (P52028 whole entry): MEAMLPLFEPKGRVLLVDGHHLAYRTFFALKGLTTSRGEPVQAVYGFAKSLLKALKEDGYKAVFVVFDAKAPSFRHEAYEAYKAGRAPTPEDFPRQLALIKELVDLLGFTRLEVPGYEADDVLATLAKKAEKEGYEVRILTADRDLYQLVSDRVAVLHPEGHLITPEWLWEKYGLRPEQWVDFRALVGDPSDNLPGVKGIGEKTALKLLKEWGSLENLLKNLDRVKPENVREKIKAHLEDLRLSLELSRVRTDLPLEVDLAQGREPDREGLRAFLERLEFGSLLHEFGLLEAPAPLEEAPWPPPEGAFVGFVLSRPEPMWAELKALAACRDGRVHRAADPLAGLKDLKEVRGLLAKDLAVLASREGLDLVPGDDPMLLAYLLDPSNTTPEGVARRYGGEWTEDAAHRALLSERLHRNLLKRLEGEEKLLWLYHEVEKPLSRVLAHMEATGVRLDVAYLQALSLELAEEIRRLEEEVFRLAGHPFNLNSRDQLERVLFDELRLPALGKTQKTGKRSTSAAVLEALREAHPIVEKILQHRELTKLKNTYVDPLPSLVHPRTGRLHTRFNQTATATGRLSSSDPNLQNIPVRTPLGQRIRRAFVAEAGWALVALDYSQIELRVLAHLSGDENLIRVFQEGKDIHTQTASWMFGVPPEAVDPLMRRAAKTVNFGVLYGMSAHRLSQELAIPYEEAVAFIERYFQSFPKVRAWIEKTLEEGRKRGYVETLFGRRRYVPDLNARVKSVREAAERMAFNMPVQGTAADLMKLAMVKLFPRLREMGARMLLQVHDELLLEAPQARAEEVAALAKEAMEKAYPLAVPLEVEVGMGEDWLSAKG

Take “4′-C-(Aminomethyl)thymidine triphosphate [compound (9)]”: the “result of incorporation (termination / further chain extension)” value in test [1] was “T”; in test [2], “T”; in test [3] it was “T”; in test [4] it was “E”; in test [5], “E”; in test [6], “E”. Besides, the “primer extended by at least one base within assay time (grade)” value (from here on “primer extended”) was “+ (up to 50% of primer extended by at least one base within assay time)” in test [1]; “+ (up to 50% of primer extended by at least one base within assay time)” in test [2]; “++ (up to 75% of primer extended by at least one base within assay time)” in test [3]; “+++” in test [4]; “+++” in test [5]; “++ (up to 75% of primer extended by at least one base within assay time)” in test [6].
On to “4′-C-(Glycylaminomethyl)thymidine triphosphate [compound (6)]”, for which the “result of incorporation (termination / further chain extension)” value in test [1] is reported as “T”; in test [2], “T”; in test [3] it was “T”; in test [4], “E”; in test [5], “E”; in test [6] it was “E”. In addition, the “primer extended” value is “+ (up to 50% of primer extended by at least one base within assay time)” in test [1]; “+ (up to 50% of primer extended by at least one base within assay time)” in test [2]; “+ (up to 50% of primer extended by at least one base within assay time)” in test [3]; “++ (up to 75% of primer extended by at least one base within assay time)” in test [4]; “+++” in test [5]; “++ (up to 75% of primer extended by at least one base within assay time)” in test [6].
As for `Cc1cn([C@H]2C[C@H](O)[C@@](CNC(=O)C(F)(F)F)(COP(=O)(O)OP(=O)(O)OP(=O)(O)O)O2)c(=O)[nH]c1=O` [compound (8), 4′-C-(N-trifluoroacetylaminomethyl)thymidine triphosphate], the “result of incorporation (termination / further chain extension)” value is recorded as “T” in test [1]; “T” in test [2]; “T” in test [3]; “E” in test [4]; “E” in test [5]; “E” in test [6]. The “primer extended” value is on record as “+ (up to 50% of primer extended by at least one base within assay time)” in test [1]; “+ (up to 50% of primer extended by at least one base within assay time)” in test [2]; “++ (up to 75% of primer extended by at least one base within assay time)” in test [3]; “++ (up to 75% of primer extended by at least one base within assay time)” in test [4]; “+++” in test [5]; “++ (up to 75% of primer extended by at least one base within assay time)” in test [6].

Values taken from patent US7078499B2, “Nucleotide analogues comprising a reporter moiety and a polymerase enzyme blocking moiety” (GE Healthcare UK Limited, priority 2000, dated 2006).
